The EC50 is the concentration giving half of the maximal effect.

human APJ receptor, sequence (P35414 whole entry): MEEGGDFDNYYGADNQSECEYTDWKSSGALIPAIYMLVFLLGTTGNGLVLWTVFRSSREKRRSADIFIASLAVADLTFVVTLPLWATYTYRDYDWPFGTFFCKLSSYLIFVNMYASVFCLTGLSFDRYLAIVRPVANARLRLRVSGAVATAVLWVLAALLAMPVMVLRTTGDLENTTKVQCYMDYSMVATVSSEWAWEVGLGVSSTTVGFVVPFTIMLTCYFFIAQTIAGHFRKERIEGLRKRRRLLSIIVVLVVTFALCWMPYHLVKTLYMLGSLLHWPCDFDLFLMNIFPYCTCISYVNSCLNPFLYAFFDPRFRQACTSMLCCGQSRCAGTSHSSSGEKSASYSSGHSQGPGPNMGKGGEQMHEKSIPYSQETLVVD

The test addresses human APJ receptor (Homo sapiens (Human), UniProt P35414). In words: [35S]GTPγS binding assay on membranes from CHO cells stably expressing human APJ receptor. It is filed as biochemical. Particulars: membranes of CHO cells stably expressing human APJ receptor, read-out: Activity hAPJ SPA EC50 IP. In short, it runs like this:
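Agonist EC50 values come from non-linear regression of mean data from several independent runs. Membranes of CHO cells stably expressing human APJ were incubated 90 min at room temperature with [35S]GTPγS in buffer with optimized GDP, MgCl2 and NaCl, then read on a microplate imager.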
In general terms: GTPγS resists hydrolysis and so accumulates on activated G proteins.
As for `COc1cccc(-c2nnc(NS(=O)(=O)[C@@H](C)[C@@H](OC(C)C)c3ncc(C)cn3)n2[C@@H](C)[C@H]2CCCO2)n1` (single isomer, unassigned) [Example 275.0], the EC50 was 18 nM.
The value for `COc1cccc(-c2nnc(NS(=O)(=O)[C@@H](C)[C@@H](OC(C)C)c3ncc(C)cn3)n2[C@@H](C)c2ccon2)n1` (single isomer, unassigned) [Example 270.0, (1S,2S)-1-isopropoxy-N-(4-((R)-1-(isoxazol-3-yl)ethyl)-5-(6-methoxypyridin-2-yl)-4H-1,2,4-triazol-3-yl)-1-(5-methylpyrimidin-2-yl)propane-2-sulfonamide or (1S,2S)-1-isopropoxy-N-(4-((S)-1-(isoxazol-3-yl)ethyl)-5-(6-methoxypyridin-2-yl)-4H-1,2,4-triazol-3-yl)-1-(5-methylpyrimidin-2-yl)propane-2-sulfonamide] was 5.1 nM; that for `COc1cccc(-c2nnc(NS(=O)(=O)[C@@H](C)[C@H](OC)c3cnc(C)cn3)n2C2(C3CC3)CC2)n1` [Example 109.0] was 9.6 nM.
For `COc1cccc(-c2nnc(NS(=O)(=O)[C@@H](C)[C@H](OC)c3ncc(Cl)cn3)n2C[C@@H]2CCC[C@H](C)O2)n1` (single isomer, unassigned) [Example 307.0] the value was 8.8 nM; for `CC[C@@H](c1conc1C)n1c(NS(=O)(=O)[C@@H](C)[C@H](C)c2ncc(Cl)cn2)nnc1-c1cccc(OC)n1` (mixture of isomers) [Example 227.0, (2S,3R)-3-(5-chloro-2-pyrimidinyl)-N-(5-(6-methoxy-2-pyridinyl)-4-((1R)-1-(3-methyl-1,2-oxazol-4-yl)propyl)-4H-1,2,4-triazol-3-yl)-2-butanesulfonamide and (2S,3R)-3-(5-chloro-2-pyrimidinyl)-N-(5-(6-methoxy-2-pyridinyl)-4-((1S)-1-(3-methyl-1,2-oxazol-4-yl)propyl)-4H-1,2,4-triazol-3-yl)-2-butanesulfonamide], 4.5 nM; for `COc1cccc(-c2nnc(NS(=O)(=O)[C@@H](C)[C@H](OC)c3ncc(Cl)cn3)n2Cc2cc(C)no2)n1` [Example 189.0, (1R,2S)-1-(5-chloropyrimidin-2-yl)-1-methoxy-N-(5-(6-methoxypyridin-2-yl)-4-((3-methylisoxazol-5-yl)methyl)-4H-1,2,4-triazol-3-yl)propane-2-sulfonamide], 18 nM.
Consider `COc1cccc(-c2nnc(NS(=O)(=O)[C@@H](C)[C@H](OC)c3ncc(Cl)cn3)n2C23CC(C2)C3)n1` [Example 263.0, (1R,2S)—N-(4-(Bicyclo[1.1.1]pentan-1-yl)-5-(6-methoxypyridin-2-yl)-4H-1,2,4-triazol-3-yl)-1-(5-chloropyrimidin-2-yl)-1-methoxypropane-2-sulfonamide], for which the EC50 was 49 nM.
For `COCC(COC)n1c(NS(=O)(=O)[C@@H](C)[C@H](OC)c2ncc(C)cn2)nnc1-c1ccccn1` [Example 8.0, (1R,2S)-N-(4-(1,3-dimethoxy-2-propanyl)-5-(2-pyridinyl)-4H-1,2,4-triazol-3-yl)-1-methoxy-1-(5-methyl-2-pyrimidinyl)-2-propanesulfonamide] the value was 19 nM.
Regarding `COc1cc(Cn2c(NS(=O)(=O)[C@@H](C)[C@H](OC)c3cnc(C)cn3)nnc2-c2cccc(OC)n2)on1` [Example 199.0, (1R,2S)-1-methoxy-N-(4-((3-methoxy-1,2-oxazol-5-yl)methyl)-5-(6-methoxy-2-pyridinyl)-4H-1,2,4-triazol-3-yl)-1-(5-methyl-2-pyrazinyl)-2-propanesulfonamide], the EC50 is 220 nM.
The value for `COc1cccc(-c2nnc(NS(=O)(=O)[C@@H](C)[C@H](OC)c3ncc(Cl)cn3)n2C(C)C)n1` [Example 11.0, (1R,2S)-1-(5-chloro-2-pyrimidinyl)-1-methoxy-N-(5-(6-methoxy-2-pyridinyl)-4-(2-propanyl)-4H-1,2,4-triazol-3-yl)-2-propanesulfonamide] was 6.4 nM; that for `CO[C@H](c1ncc(Cl)cn1)[C@H](C)S(=O)(=O)Nc1nnc(-c2cccnc2)n1C(C1CC1)C1CC1` [Example 112.0] was 3.3 nM.
Take `COc1cccc(-c2nnc(NS(=O)(=O)[C@@H](C)[C@H](C)c3ncc(Cl)cn3)n2[C@@H](C)c2noc(C)n2)n1` (single isomer, unassigned) [Example 245.0, (2S,3R)-3-(5-chloro-2-pyrimidinyl)-N-(5-(6-methoxy-2-pyridinyl)-4-((1R)-1-(5-methyl-1,2,4-oxadiazol-3-yl)ethyl)-4H-1,2,4-triazol-3-yl)-2-butanesulfonamide or (2S,3R)-3-(5-chloro-2-pyrimidinyl)-N-(5-(6-methoxy-2-pyridinyl)-4-((1S)-1-(5-methyl-1,2,4-oxadiazol-3-yl)ethyl)-4H-1,2,4-triazol-3-yl)-2-butanesulfonamide]: the concentration giving a half-maximal response (EC50) turned out to be 7 nM.
For `COc1cccc(-c2nnc(NS(=O)(=O)[C@@H](C)[C@H](C)c3ncc(Cl)cn3)n2[C@@H](C)c2ccon2)n1` (racemic) [Example 267.0, (2S,3R)-3-(5-chloropyrimidin-2-yl)-N-(4-((R)-1-(isoxazol-3-yl)ethyl)-5-(6-methoxypyridin-2-yl)-4H-1,2,4-triazol-3-yl)butane-2-sulfonamide or (2S,3R)-3-(5-chloropyrimidin-2-yl)-N-(4-((S)-1-(isoxazol-3-yl)ethyl)-5-(6-methoxypyridin-2-yl)-4H-1,2,4-triazol-3-yl)butane-2-sulfonamide] the value was 4.2 nM; for `COc1cccc(-c2nnc(NS(=O)(=O)[C@@H](C)[C@H](OC)c3ncc(Cl)cn3)n2C2CC3(COC3)C2)n1` [Example 7.0, (1R,2S)-1-(5-chloro-2-pyrimidinyl)-1-methoxy-N-(5-(6-methoxy-2-pyridinyl)-4-(2-oxaspiro[3.3]hept-6-yl)-4H-1,2,4-triazol-3-yl)-2-propanesulfonamide], 240 nM.
For `COCC(COC)n1c(NS(=O)(=O)[C@@H](C)[C@@H](OC(C)C)c2ncc(OC)cn2)nnc1-c1cccc(OC)n1` [Example 172.0, (1S,2S)-N-(4-(1,3-dimethoxy-2-propanyl)-5-(6-methoxy-2-pyridinyl)-4H-1,2,4-triazol-3-yl)-1-(5-methoxy-2-pyrimidinyl)-1-(2-propanyloxy)-2-propanesulfonamide] the value was 1.4 nM; for `CC[C@@H](c1c(C)noc1C)n1c(NS(=O)(=O)[C@@H](C)[C@H](C)c2ncc(Cl)cn2)nnc1-c1cccc(OC)n1` (single isomer, unassigned) [Example 224.0, (2S,3R)-3-(5-chloro-2-pyrimidinyl)-N-(4-((1S)-1-(3,5-dimethyl-1,2-oxazol-4-yl)propyl)-5-(6-methoxy-2-pyridinyl)-4H-1,2,4-triazol-3-yl)-2-butanesulfonamide or (2S,3R)-3-(5-chloro-2-pyrimidinyl)-N-(4-((1R)-1-(3,5-dimethyl-1,2-oxazol-4-yl)propyl)-5-(6-methoxy-2-pyridinyl)-4H-1,2,4-triazol-3-yl)-2-butanesulfonamide], 13 nM.
Turning to `COCCn1c(NS(=O)(=O)[C@@H](C)[C@H](C)c2ncc(OC)cn2)nnc1-c1cccc(OC)n1` [Example 20.0, (2S,3R)-N-(4-(2-methoxyethyl)-5-(6-methoxy-2-pyridinyl)-4H-1,2,4-triazol-3-yl)-3-(5-methoxy-2-pyrimidinyl)-2-butanesulfonamide], the EC50 turned out to be 110 nM.
`COc1cccc(-c2nnc(NS(=O)(=O)[C@@H](C)[C@H](OC)c3ncc(Cl)cn3)n2Cc2cc(C(F)(F)F)no2)n1` [Example 205.0, (1R,2S)-1-(5-chloro-2-pyrimidinyl)-1-methoxy-N-(5-(6-methoxy-2-pyridinyl)-4-((3-(trifluoromethyl)-1,2-oxazol-5-yl)methyl)-4H-1,2,4-triazol-3-yl)-2-propanesulfonamide]: the EC50 turned out to be 4.5 nM.
For `CCc1noc(C)c1Cn1c(NS(=O)(=O)[C@@H](C)[C@H](OC)c2ncc(Cl)cn2)nnc1-c1cccc(OC)n1` [Example 192.0, (1R,2S)-1-(5-chloro-2-pyrimidinyl)-N-(4-((3-ethyl-5-methyl-1,2-oxazol-4-yl)methyl)-5-(6-methoxy-2-pyridinyl)-4H-1,2,4-triazol-3-yl)-1-methoxy-2-propanesulfonamide], the EC50 worked out at 260 nM.
For `COc1cccc(-c2nnc(NS(=O)(=O)[C@@H](C)[C@H](OC)c3ncc(Cl)cn3)n2[C@H](C)c2cnn(C)c2)n1` (single isomer, unassigned) [Example 338.0, (1R,2S)-1-(5-chloropyrimidin-2-yl)-1-methoxy-N-(5-(6-methoxypyridin-2-yl)-4-((R)-1-(1-methyl-1H-pyrazol-4-yl)ethyl)-4H-1,2,4-triazol-3-yl)propane-2-sulfonamide or (1R,2S)-1-(5-chloropyrimidin-2-yl)-1-methoxy-N-(5-(6-methoxypyridin-2-yl)-4-((S)-1-(1-methyl-1H-pyrazol-4-yl)ethyl)-4H-1,2,4-triazol-3-yl)propane-2-sulfonamide] the value was 0.56 nM.
In the case of `COCC1(n2c(NS(=O)(=O)[C@@H](C)[C@@H](OC(C)C)c3ncc(C)cn3)nnc2-c2cccc(OC)n2)CC1` [Example 64.0], the EC50 amounted to 0.16 nM.
The value for `COc1cccc(-c2nnc(NS(=O)(=O)[C@@H](C)[C@H](OC)c3ncc(Cl)cn3)n2[C@@H]2CCC23CCC3)n1` (single isomer, unassigned) [Example 92.0] was 1.2 nM; that for `COCC1(n2c(NS(=O)(=O)[C@@H](C)[C@H](OC)c3ncc(Cl)cn3)nnc2-c2ccccn2)CC1` [Example 61.0] was 0.89 nM.
The value for `COc1cccc(-c2nnc(NS(=O)(=O)[C@@H](C)[C@H](OC)c3ncc(Cl)cn3)n2C2CCC2)n1` [Example 182.0, (1R,2S)-1-(5-chloro-2-pyrimidinyl)-N-(4-cyclobutyl-5-(6-methoxy-2-pyridinyl)-4H-1,2,4-triazol-3-yl)-1-methoxy-2-propanesulfonamide] was 25 nM.

(Values after patent US10689367B2, “Triazole pyridyl compounds as agonists of the APJ receptor” (AMGEN INC., priority 2016, dated 2020).)
